The source of these data is patent US10653709B2, “Methods of folding a graft copolymer with dual anticancer drugs and related applications” (priority 2014, dated 2020).

Type in all cases: cell-based
Assay [1] has as its system panel of 9 cancer cell lines. The assay is described as follows: In vitro cytotoxicity across the panel. The conditions noted are these: range over the panel, 48 hours; read-out: IC50s across cancer cell lines. The procedure:
(§1) In vitro cytotoxicity of CPT, Dox, MB-20 and MB-20/Dox was measured using the 3-(4,5-dimethylthiazol-2-yl)-2,5-diphenyltetrazolium bromide (MTT) assay. Briefly, cancer cells were seeded in a 96-well plate at a density of 5,000 cells per well. After 12 h incubation, a series of drug dilution (1 nM to 300 μM) were added into wells. After 48 h of drug treatment, the cytotoxicity was measured using the MTT assay. To enhance the assay sensitivity, Sorensen's glycine buffer (0.1 M glycine, 0.1 M NaCl adjust pH to 10.5 with 0.1 N NaOH) was added into wells before absorbance assay. See Plumb et al., Cancer Res., 49, 4435-4440 (1989); Tai et al., Mol. Pharm., 8, 901-912 (2011); and Tai et al., Mol. Pharm., 10, 477-487 (2013). The absorbance at wavelength of 570 nm was measured using a microplate reader (Infinite® M200 PRO, Tecan, Mannedorf, Switzerland). The half-maximal inhibitory concentration (IC50) was calculated by fitting a concentration—absorbance curve using the Graphpad Prism 5 software (Graphpad Software Inc., San Diego, Calif., United States of America).

The subject of another assay is MDA-MB-231. The experiment in a line: In vitro cytotoxicity, MTT assay. The following applies: Homo sapiens; MDA-MB-231 (breast), 48 hours, mean ± SD. The procedure:
as §1
On the technique in general: Tetrazolium assays rely on reduction of a dye to a coloured formazan, in cell work by metabolically active cells.

In the next assay the test system is Hep G2. The experiment in a line: In vitro cytotoxicity, MTT assay. The following applies: Homo sapiens, HepG2; Hep G2 (liver), 48 hours, mean ± SD. As for the experimental part:
as §1

The subject of another assay is NCI-H441. The assay is described as follows: In vitro cytotoxicity, MTT assay. The following applies: Homo sapiens; NCI-H441 (lung), 48 hours, mean ± SD. The procedure: as §1
In a further assay the test system is HeLa. The experiment in a line: In vitro cytotoxicity, MTT assay. The conditions noted are these: Homo sapiens; HeLa (cervix), 48 hours, mean ± SD. As for the experimental part:
as §1

In another assay the test system is PC-3. The experiment in a line: In vitro cytotoxicity, MTT assay. The following applies: Homo sapiens; PC-3 (prostate), 48 hours, mean ± SD. As for the experimental part:
as §1

In a further assay the test system is MDA-MB-468. The experiment in a line: In vitro cytotoxicity, MTT assay. The conditions noted are these: Homo sapiens; MDA-MB-468 (breast), 48 hours, mean ± SD. The procedure: as §1
Another assay relates to A549. The experiment in a line: In vitro cytotoxicity, MTT assay. The conditions noted are these: Homo sapiens; A549 (lung), 48 hours, mean ± SD. As for the experimental part: as §1
The next assay has as its system MCF-7. The experiment in a line: In vitro cytotoxicity, MTT assay. The conditions noted are these: Homo sapiens, MCF7; MCF-7 (breast), 48 hours, mean ± SD. As for the experimental part:
as §1

A further assay has as its system HL-60. The assay is described as follows: In vitro cytotoxicity, CellTiter-Glo Luminescent Cell Viability Assay. The following applies: Homo sapiens, HL-60 (leukemia), suspension cells, mean ± SD. For orientation: In ATP-based viability assays light output follows the ATP content of the culture.

As for `CC[C@@]1(O)C(=O)OCc2c1cc1n(c2=O)Cc2cc3ccccc3nc2-1` [CPT, camptothecin], the IC50 in [1] is 20 to 3300 nM; with MDA-MB-231 it was 600 ± 500 nM; with Hep G2, 600 ± 1400 nM; in the assay on NCI-H441, 100 ± 200 nM; in the assay with HeLa, 3300 ± 1500 nM; with PC-3 it was 20 nM. In addition, the IC50 amounted to 90 ± 90 nM with MDA-MB-468, 300 nM in the assay with A549, 1200 ± 1000 nM in the assay with MCF-7 and 400 ± 1000 nM in the assay with HL-60.

Regarding `COc1cccc2c1C(=O)c1c(O)c3c(c(O)c1C2=O)C[C@@](O)(C(=O)CO)C[C@@H]3O[C@H]1C[C@H](N)[C@H](O)[C@H](C)O1` [Dox, doxorubicin], the IC50 in the assay on MDA-MB-231 was 100 nM; with Hep G2, 500 ± 1400 nM; in the assay with NCI-H441 it was 200 ± 400 nM; with HeLa, 1000 ± 1700 nM; in the assay on PC-3, 200 ± 400 nM; with MDA-MB-468, 100 nM. The IC50 was determined as 500 ± 800 nM in the assay on A549, 300 nM with MCF-7 and 300 nM in the assay on HL-60.
